Test: Stability test of the crystal
Format: physicochemical
Details: crystal containing 1/3 isopropanol

stability in the stability test: stable
Compound: Nc1nc(/C(=N/O)C(=O)N[C@@H]2C(=O)N3C(C(=O)O)=C(SCc4cn[nH]c4)CS[C@H]23)cs1 [Example 37, 7β-[2-(2-aminothiazol-4-yl)-2-(Z)-(hydroxyimino)acetamido]-3-[(pyrazol-4-yl)methylthio]-3-cephem-4-carboxylic acid containing 1/3 isopropanol]
